Assay results taken from patent US20050031661A1, “Attractants for moths” (priority 2003, published 2005).

Test system: corn earworm moths
Test: not given
Conditions: Cantelo and Jacobson, 1979b; cited from earlier work

Q: Which “Attraction of corn earworm moths” value does the source give for O=CCc1ccccc1 [phenylacetaldehyde] here?
A: attract

Test system: cabbage looper moths
Test: Single component floral lures, Universal moth trap captures (Example 2)
Format: in vivo, Trichoplusia ni
Conditions: Universal moth traps baited with individual floral chemicals dispensed from polypropylene vials (5 ml, 3 mm hole)
From the text: (§1) Materials and Methods. A multi-colored version of the Universal Moth Trap, or UniTrap® (AgriSense, sold by Great Lakes IPM, Vestaburg, Mich.), was used in all experiments. The trap is an opaque white bucket beneath a yellow cone and a green lid. A 2.5×2.5 cm piece of Vaportape® (Hercon Environmental, Emigsville, Pa.) was placed in each trap bucket as a killing agent. Traps were hung from stakes at a height of about one meter in uncultivated areas adjacent to fields of alfalfa or directly within alfalfa fields. Traps were placed 12 meters apart in a north to south orientation, because of prevailing westerly winds.
(§2) For all experiments, a randomized complete block design was used, and treatments were randomized each time traps were checked. Traps were checked twice per week, at which time all insects in the traps were placed in pre-labeled plastic bags for transport to the laboratory. Moths were identified and sorted by sex under a dissecting microscope.
(§3) β-Pinene, (R)-(+)-α-pinene, (S)-(−)-limonene, β-myrcene, phenylacetaldehyde, methyl salicylate, and methyl-2-methoxybenzoate were purchased from Aldrich Chemical Co. (Milwaukee, Wis.). (R)-(+)-limonene was purchased from Acros Chemical Co. (Milwaukee, Wis.).
(§4) Polypropylene vials (8 ml) were used as dispensers for release of chemicals tested, following the methods used in Landolt et al., 2001, supra. Chemicals (5 ml) were pipetted onto cotton in the bottom of the vial. Holes made in vial lids (3 mm diameter) permitted the escape of volatilized chemicals. Vials were suspended with wire near the bottom of the inside of the bucket of the UniTrap®. When more than one chemical was used to bait a trap, a separate vial was used for each chemical. Dispensers were replaced after two weeks when experiments lasted longer than two weeks.
(§5) A comparison was made of moth captures in traps baited with seven different chemicals that are emitted by flowers. These chemicals were phenylacetaldehyde, (included as a positive control and standard for comparison), methyl salicylate, racemic limonene, methyl-2-methoxybenzoate, (R)-(+)-α-pinene, (S)-(−)-β-pinene, and β-myrcene. Five replicate blocks, each including these seven chemical treatments and an unbaited trap, were set up on 18 May 2001 and were maintained until 1 Jun. 2001. The study was conducted at an experimental farm about 20 km east of the town of Moxee, in Yakima County, Wash. The same study was conducted again 3-27 July 2001 near Mattawa, Grant County, Wash., in order to take advantage of cabbage looper populations that became apparent in mid summer.
(§6) Trap catch data were subjected to an ANOVA and treatment means were separated using Tukey's test, following a significant F value in the ANOVA.

Q: For COC(=O)c1ccccc1O [methyl salicylate], which “Mean (±SE) numbers of cabbage looper moths captured” value is on record?
A: 0.1 ± 0.1a

Q: Which “Mean (±SE) numbers of cabbage looper moths captured” value does the source give for C=C(C)[C@H]1CC=C(C)CC1 [limonene] here?
A: 0.0 ± 0.0a

Q: Which “Mean (±SE) numbers of cabbage looper moths captured” value does the source give for O=CCc1ccccc1 [phenylacetaldehyde] here?
A: 7.2 ± 1.0c

Q: With C=CC(=C)CCC=C(C)C [β-myrcene] as the compound, how does the “Mean (±SE) numbers of cabbage looper moths captured” value read?
A: 0.1 ± 0.1a

Q: Which “Mean (±SE) numbers of cabbage looper moths captured” value does the source give for C=C1CC[C@H]2C[C@@H]1C2(C)C [β-pinene, (S)-(−)-β-pinene] here?
A: 0.0 ± 0.0a

Q: For CC1=CC[C@@H]2C[C@H]1C2(C)C [α-pinene, (R)-(+)-α-pinene], which “Mean (±SE) numbers of cabbage looper moths captured” value is on record?
A: 0.1 ± 0.0a

Q: Which “Mean (±SE) numbers of cabbage looper moths captured” value does the source give for COC(=O)c1ccccc1OC [methyl-2-methoxybenzoate] here?
A: 0.6 ± 0.2b

Test system: corn earworm moths
Test: Double component Test 6, combinations with benzyl alcohol
Format: in vivo, Helicoverpa zea
Conditions: single and double component combinations dispensed from vials
From the text: (§7) Materials and Methods. The Universal Moth Trap (Great Lakes IPM, Vestaburg, Mich.) was used in all tests, with a 6 cm^2 piece of Vaportape® (Hercon Environmental Inc., Emigsville, Pa.) in each trap bucket to kill captured moths. The trap is an opaque white bucket with a yellow cone and green lid. Traps were hung from stakes in the weedy borders around irrigated fields in the vicinity of sweet corn and alfalfa, near Mattawa, Grant County, Wash. Traps were placed 12 meters apart in a north to south orientation, because of prevailing westerly winds.
(§8) A randomized complete block design was used, and treatments (trap lures) were randomized each time that traps were checked. Traps were checked twice per week, and insects were placed in pre-labeled plastic bags for transport to the laboratory where they were stored in a freezer until processed. Moths were sorted by sex and identified to species with the aid of a dissecting microscope.
Unless reported otherwise, polypropylene vials (8 ml) were used as dispensers for release of chemicals tested following the methods of Landolt et al., 2001, supra. Chemicals (5 ml) were pipetted onto cotton in the bottom of the vial. Holes made in the lids (3 mm diameter) permitted the escape of volatilized chemicals from the vials. Vials were suspended with wire near the bottom of the inside of the bucket of the trap. […]

Q: With O=CCc1ccccc1 [phenylacetaldehyde] as the compound, how does the “Mean (±SE) numbers of corn earworm moths captured” value read?
A: 2.25 ± 0.35c

Q: Which “Mean (±SE) numbers of corn earworm moths captured” value does the source give for OCc1ccccc1 [benzyl alcohol] here?
A: 0.10 ± 0.07a

Test system: alfalfa looper moth
Test: not given
Conditions: Landolt et al., 2001; cited from earlier work

Q: Which “Attraction of alfalfa looper moths (capture in baited traps)” value (“Attraction of alfalfa looper moths” for short) does the source give for OCCc1ccccc1 [Phenethyl alcohol, phenethyl alcohol] here?
A: not attracted

Q: With O=CCc1ccccc1 [phenylacetaldehyde] as the compound, how does the “Attraction of alfalfa looper moths” value read?
A: attracted

Q: Which “Attraction of alfalfa looper moths” value does the source give for C=CC(C)(O)CCC=C(C)C (centres unmarked) [linalool] here?
A: not attracted

Q: Which “Attraction of alfalfa looper moths” value does the source give for CC/C=C\CC1=C(C)CCC1=O [cis-jasmone] here?
A: not attracted

Q: Which “Attraction of alfalfa looper moths” value does the source give for O=Cc1ccccc1 [Benzyl aldehyde, benzyl aldehyde] here?
A: not attracted

Q: With CC(=O)OCc1ccccc1 [benzyl acetate] as the compound, how does the “Attraction of alfalfa looper moths” value read?
A: attracted

Q: Which “Attraction of alfalfa looper moths” value does the source give for OCc1ccccc1 [benzyl alcohol] here?
A: not attracted

Test system: alfalfa looper moths
Test: Double component blends, benzyl acetate plus, trap captures
Format: in vivo, Autographa californica
Conditions: Universal moth traps; benzyl acetate (BA) alone, PAA alone, or BA plus second chemical in separate vials
From the text: as §1, §2
Polypropylene vials (8 ml) were used as dispensers for release of chemicals tested, following the methods used in Landolt et al., 2001, supra. Chemicals (5 ml) were pipetted onto cotton in the bottom of the vial. Holes made in vial lids (3 mm diameter) permitted the escape of volatilized chemicals. Vials were suspended with wire near the bottom of the inside of the bucket of the UniTrap®. […]

Q: With O=CCc1ccccc1 [phenylacetaldehyde] as the compound, how does the “Mean (±SE) numbers of alfalfa looper moths captured” value read?
A: 0.83 ± 0.21e

Q: For CC(=O)OCc1ccccc1 [benzyl acetate], which “Mean (±SE) numbers of alfalfa looper moths captured” value is on record?
A: 0.37 ± 0.12c

Test system: corn earworm moths
Test: Single component floral lures, 2001 field season (Example 3)
Format: in vivo, Helicoverpa zea
Conditions: Universal Moth Traps baited with individual floral chemicals from polypropylene vials
From the text: as §7, §8
β-Pinene, R-(+)-alpha-pinene, (S)-(−)-limonene, β-myrcene, phenylacetaldehyde, methyl salicylate, and methyl-2-methoxybenzoate were purchased from Aldrich Chemical Inc. (Milwaukee, Wis.). (R)-(+)-limonene was purchased from Acros Chemical Co. (Milwaukee, Wis.).
(§9) Unless reported otherwise, polypropylene vials (8 ml) were used as dispensers for release of chemicals tested following the methods of Landolt et al., 2001, supra. Chemicals (5 ml) were pipetted onto cotton in the bottom of the vial. Holes made in the lids (3 mm diameter) permitted the escape of volatilized chemicals from the vials. Vials were suspended with wire near the bottom of the inside of the bucket of the trap. When more than one chemical was used to bait a trap, a separate vial was used for each chemical. Dispensers were replaced every 2 weeks when experiments lasted longer than two weeks.
A second comparison of floral compounds was made in the 2001 field season, for attractiveness to corn earworm moths. These chemicals were phenylacetaldehyde, methyl salicylate, racemic limonene, methyl-2-methoxybenzoate, […], (S)-beta pinene, and β-myrcene. Five replicate blocks, each including these seven chemical treatments and an unbaited trap as a control, were set up on 3 Jul. 2001 and were maintained until 27 Jul. 2001.
as §6

Q: For COC(=O)c1ccccc1O [methyl salicylate], which “Mean (±SE) numbers of corn earworm moths captured” value is on record?
A: 0.10 ± 0.05a

Q: Which “Mean (±SE) numbers of corn earworm moths captured” value does the source give for C=C(C)[C@H]1CC=C(C)CC1 [limonene] here?
A: 0.05 ± 0.05a

Q: With O=CCc1ccccc1 [phenylacetaldehyde] as the compound, how does the “Mean (±SE) numbers of corn earworm moths captured” value read?
A: 2.35 ± 0.62b

Q: With C=CC(=C)CCC=C(C)C [β-myrcene] as the compound, how does the “Mean (±SE) numbers of corn earworm moths captured” value read?
A: 0.20 ± 0.10a

Q: For C=C1CC[C@H]2C[C@@H]1C2(C)C [β-pinene, (S)-(−)-β-pinene], which “Mean (±SE) numbers of corn earworm moths captured” value is on record?
A: 0.03 ± 0.03a

Q: With CC1=CC[C@@H]2C[C@H]1C2(C)C [α-pinene, (R)-(+)-α-pinene] as the compound, how does the “Mean (±SE) numbers of corn earworm moths captured” value read?
A: 0.08 ± 0.04a

Q: For COC(=O)c1ccccc1OC [methyl-2-methoxybenzoate], which “Mean (±SE) numbers of corn earworm moths captured” value is on record?
A: 3.90 ± 1.69b

Test system: corn earworm moths
Test: Double component Test 7, linalool, benzyl aldehyde, phenethyl alcohol combinations
Format: in vivo, Helicoverpa zea
Conditions: single and double component combinations dispensed from vials
From the text: as §7, §8, §9
Seven double component tests were conducted. For each two-component combinations, two vials were placed in the bucket of the trap; one vial containing phenylacetaldehyde and the other vial containing the second chemical (excepting the use of septa as dispensers for the third double component test that involved terpenes. Five replicate blocks, each including one of each of the different two-chemical combinations as well as phenylacetaldehyde alone, were set up and were maintained for two weeks.
Test 7. The combinations of linalool plus benzyl aldehyde, phenethyl alcohol plus benzaldehyde, and phenethyl alcohol plus linalool were compared to phenylacetaldehyde alone, linalool alone, benzyl aldehyde alone and phenethyl alcohol alone.
as §6

Q: Which “Mean (±SE) numbers of corn earworm moths captured” value does the source give for OCCc1ccccc1 [Phenethyl alcohol, phenethyl alcohol] here?
A: 0.05 ± 0.05a

Q: Which “Mean (±SE) numbers of corn earworm moths captured” value does the source give for O=CCc1ccccc1 [phenylacetaldehyde] here?
A: 1.75 ± 0.43c

Q: With C=CC(C)(O)CCC=C(C)C (centres unmarked) [linalool] as the compound, how does the “Mean (±SE) numbers of corn earworm moths captured” value read?
A: 0.00 ± 0.00a

Q: With O=Cc1ccccc1 [Benzyl aldehyde, benzyl aldehyde] as the compound, how does the “Mean (±SE) numbers of corn earworm moths captured” value read?
A: 0.05 ± 0.05a

Test system: alfalfa looper moths
Test: Single component floral lures, Universal moth trap captures (Example 2)
Format: in vivo, Autographa californica
Conditions: Universal moth traps baited with individual floral chemicals dispensed from polypropylene vials (5 ml, 3 mm hole)
From the text: as §1, §2, §3, §4, §5, §6

Q: Which “Mean (±SE) numbers of alfalfa looper moths captured” value does the source give for COC(=O)c1ccccc1O [methyl salicylate] here?
A: 0.1 ± 0.0a

Q: For C=C(C)[C@H]1CC=C(C)CC1 [limonene], which “Mean (±SE) numbers of alfalfa looper moths captured” value is on record?
A: 0.0 ± 0.0a

Q: For O=CCc1ccccc1 [phenylacetaldehyde], which “Mean (±SE) numbers of alfalfa looper moths captured” value is on record?
A: 4.5 ± 0.5c

Q: For C=CC(=C)CCC=C(C)C [β-myrcene], which “Mean (±SE) numbers of alfalfa looper moths captured” value is on record?
A: 0.4 ± 0.1b

Q: Which “Mean (±SE) numbers of alfalfa looper moths captured” value does the source give for C=C1CC[C@H]2C[C@@H]1C2(C)C [β-pinene, (S)-(−)-β-pinene] here?
A: 0.0 ± 0.0a

Q: Which “Mean (±SE) numbers of alfalfa looper moths captured” value does the source give for CC1=CC[C@@H]2C[C@H]1C2(C)C [α-pinene, (R)-(+)-α-pinene] here?
A: 0.0 ± 0.0a

Q: For COC(=O)c1ccccc1OC [methyl-2-methoxybenzoate], which “Mean (±SE) numbers of alfalfa looper moths captured” value is on record?
A: 0.1 ± 0.0a

Test system: corn earworm moths
Test: Single component floral lures, 2000 field season (Example 3)
Format: in vivo, Helicoverpa zea
Conditions: Universal Moth Traps baited with individual floral chemicals from polypropylene vials
From the text: as §7, §8, §9
During the 2000 field season, seven floral compounds were evaluated for attractiveness to corn earworm moths, testing them as lures in traps. These compounds were phenylacetaldehyde, benzyl alcohol, benzyl aldehyde, benzyl acetate, cis jasmone, linalool and phenethyl alcohol. A randomized complete block design was used, with 5 replicate blocks set up. Each block included an unbaited trap as a control.
as §6

Q: With OCCc1ccccc1 [Phenethyl alcohol, phenethyl alcohol] as the compound, how does the “Mean (±SE) numbers of corn earworm moths captured” value read?
A: 0.00 ± 0.00

Q: Which “Mean (±SE) numbers of corn earworm moths captured” value does the source give for O=CCc1ccccc1 [phenylacetaldehyde] here?
A: 0.45 ± 0.22b

Q: With C=CC(C)(O)CCC=C(C)C (centres unmarked) [linalool] as the compound, how does the “Mean (±SE) numbers of corn earworm moths captured” value read?
A: 0.00 ± 0.00

Q: Which “Mean (±SE) numbers of corn earworm moths captured” value does the source give for CC/C=C\CC1=C(C)CCC1=O [cis-jasmone] here?
A: 0.00 ± 0.00

Q: For O=Cc1ccccc1 [Benzyl aldehyde, benzyl aldehyde], which “Mean (±SE) numbers of corn earworm moths captured” value is on record?
A: 0.05 ± 0.05a

Q: Which “Mean (±SE) numbers of corn earworm moths captured” value does the source give for CC(=O)OCc1ccccc1 [benzyl acetate] here?
A: 0.00 ± 0.00

Q: Which “Mean (±SE) numbers of corn earworm moths captured” value does the source give for OCc1ccccc1 [benzyl alcohol] here?
A: 0.15 ± 0.08a
